Measurements published in patent US11490644B2, “Co-Q10, krill oil and vitamin D” (RB HEALTH (US) LLC, priority 2015, dated 2022).
Read-outs that look alike come from different tables or passages of the source. Values belong to the molecule of their own block, whether it stands above or below them.

Columns and labels:
Assay type in all cases: physicochemical
[1] = Stability of Co-Q10 and Co-QH in krill oil and Vitamin D mixtures, accelerated conditions; conditions: over the 12-week period; 40° C., 75% relative humidity
Description: Two formulations comprising Co-Q10 (Study I) and Co-QH (Study II) were evaluated for stability in krill oil and Vitamin D mixtures. The compositions were subjected to accelerated conditions (40° C., 75% relative humidity for up to 12 weeks), and the amounts of Co-Q10, Co-QH, and ubichromenol were evaluated at several time points.

[2] = Antioxidant study: influence of antioxidant on Co-Q10 stability in krill oil and Vitamin D; conditions: for Amount of Co-Q10: in krill oil and Vitamin D with the antioxidant
Description: (§1) Several antioxidants were evaluated for their ability to stabilize Co-Q10 in krill oil and Vitamin D. The results are summarized in Table 2.

[3] = Influence of antioxidant dosing on Co-Q10 stability
Description: as §1

[4] = Influence of chelating agent on Co-Q10 stability; conditions: with the chelating agent
[5] = antioxidant medium dose, 1 week
[6] = antioxidant medium dose, 2 weeks
[7] = antioxidant medium dose, Initial

Stability in krill oil and Vitamin D (in words) [1]: unstable
SMILES: COC1=C(OC)C(=O)C(C/C=C(\C)CC/C=C(\C)CC/C=C(\C)CC/C=C(\C)CC/C=C(\C)CC/C=C(\C)CC/C=C(\C)CC/C=C(\C)CC/C=C(\C)CCC=C(C)C)=C(C)C1=O [Co-Q10, Coenzyme Q10]

SMILES: COc1c(O)c(C)c(C/C=C(\C)CC/C=C(\C)CC/C=C(\C)CC/C=C(\C)CC/C=C(\C)CC/C=C(\C)CC/C=C(\C)CC/C=C(\C)CC/C=C(\C)CCC=C(C)C)c(O)c1OC [Co-QH, ubiquinol]
Stability in krill oil and Vitamin D (in words) [1]: stable

Ability to stabilize Co-Q10 in krill oil and Vitamin D (in words) [2]: degrades rapidly
Amount of Co-Q10 ([2]; 1 week): 48 mg
Amount of Co-Q10 ([2]; 2 weeks): 25 mg
Amount of Co-Q10 ([2]; Initial): 142 mg
Amount of Co-Q10 ([3]; antioxidant high dose, 1 week): 43 mg
Amount of Co-Q10 ([3]; antioxidant high dose, 2 weeks): 26 mg
Amount of Co-Q10 ([3]; antioxidant high dose, Initial): 146 mg
Amount of Co-Q10 ([3]; antioxidant low dose, 1 week): 16 mg
Amount of Co-Q10 ([3]; antioxidant low dose, 2 weeks): 14 mg
Amount of Co-Q10 ([3]; antioxidant low dose, Initial): 142 mg
Amount of Co-Q10 [3, 5]: 23 mg
Amount of Co-Q10 [3, 6]: 16 mg
Amount of Co-Q10 [3, 7]: 146 mg
SMILES: C=CCc1ccc(O)c(OC)c1 [Eugenol]

SMILES: NC(N)=S [Thiourea]
Ability to stabilize Co-Q10 in krill oil and Vitamin D (in words) ([2]; Table 2): degrades rapidly

Amount of Co-Q10 ([2]; 1 week): 133 mg
Amount of Co-Q10 ([2]; 2 weeks): 129 mg
Amount of Co-Q10 ([2]; Initial): 139 mg
Amount of Co-Q10 ([3]; antioxidant high dose, 1 week): 100 mg
Amount of Co-Q10 ([3]; antioxidant high dose, 2 weeks): 100 mg
Amount of Co-Q10 ([3]; antioxidant high dose, Initial): 109 mg
Amount of Co-Q10 ([3]; antioxidant low dose, 1 week): 91 mg
Amount of Co-Q10 ([3]; antioxidant low dose, 2 weeks): 71 mg
Amount of Co-Q10 ([3]; antioxidant low dose, Initial): 137 mg
Amount of Co-Q10 [3, 5]: 136 mg
Amount of Co-Q10 [3, 6]: 138 mg
Amount of Co-Q10 [3, 7]: 145 mg
SMILES: O=C1O[C@H]([C@@H](O)CO)C(O)=C1O [Ascorbic Acid]

Amount of Co-Q10 ([4]; 1 week): 10 mg
Amount of Co-Q10 ([4]; 2 weeks): 0 mg
Amount of Co-Q10 ([4]; Initial): 125 mg
SMILES: O=C(O)CN(CCN(CC(=O)O)CC(=O)O)CC(=O)O [EDTA]

SMILES: CC(=O)OO [Peracetic acid (PAA), Peracetic acid]
Amount of Co-Q10 ([4]; 1 week): 10 mg
Amount of Co-Q10 ([4]; 2 weeks): 0 mg
Amount of Co-Q10 ([4]; Initial): 137 mg
